Data as given in patent US20150284375A1 (AJINOMOTO CO., INC., priority 2012, published 2015).

These compounds were tested against T1, human TRPA1 (Homo sapiens, UniProt O75762) (assay: Measurement of TRPA1 antagonist activity (intracellular calcium increase, FLIPR, allylisothiocyanate stimulation)). Settings: 293T cells transfected with human TRPA1; allylisothiocyanate 20 μM; concentration for 50% inhibitory rate; read-out: antagonism hTRPA1.
T1 construct: expressed in transfected cells; host or cells: Human embryonic kidney-derived 293T cells, transiently transfected with the pcDNA3.1/zeo(+) human TRPA1 plasmid
T1 sequence (O75762 whole entry): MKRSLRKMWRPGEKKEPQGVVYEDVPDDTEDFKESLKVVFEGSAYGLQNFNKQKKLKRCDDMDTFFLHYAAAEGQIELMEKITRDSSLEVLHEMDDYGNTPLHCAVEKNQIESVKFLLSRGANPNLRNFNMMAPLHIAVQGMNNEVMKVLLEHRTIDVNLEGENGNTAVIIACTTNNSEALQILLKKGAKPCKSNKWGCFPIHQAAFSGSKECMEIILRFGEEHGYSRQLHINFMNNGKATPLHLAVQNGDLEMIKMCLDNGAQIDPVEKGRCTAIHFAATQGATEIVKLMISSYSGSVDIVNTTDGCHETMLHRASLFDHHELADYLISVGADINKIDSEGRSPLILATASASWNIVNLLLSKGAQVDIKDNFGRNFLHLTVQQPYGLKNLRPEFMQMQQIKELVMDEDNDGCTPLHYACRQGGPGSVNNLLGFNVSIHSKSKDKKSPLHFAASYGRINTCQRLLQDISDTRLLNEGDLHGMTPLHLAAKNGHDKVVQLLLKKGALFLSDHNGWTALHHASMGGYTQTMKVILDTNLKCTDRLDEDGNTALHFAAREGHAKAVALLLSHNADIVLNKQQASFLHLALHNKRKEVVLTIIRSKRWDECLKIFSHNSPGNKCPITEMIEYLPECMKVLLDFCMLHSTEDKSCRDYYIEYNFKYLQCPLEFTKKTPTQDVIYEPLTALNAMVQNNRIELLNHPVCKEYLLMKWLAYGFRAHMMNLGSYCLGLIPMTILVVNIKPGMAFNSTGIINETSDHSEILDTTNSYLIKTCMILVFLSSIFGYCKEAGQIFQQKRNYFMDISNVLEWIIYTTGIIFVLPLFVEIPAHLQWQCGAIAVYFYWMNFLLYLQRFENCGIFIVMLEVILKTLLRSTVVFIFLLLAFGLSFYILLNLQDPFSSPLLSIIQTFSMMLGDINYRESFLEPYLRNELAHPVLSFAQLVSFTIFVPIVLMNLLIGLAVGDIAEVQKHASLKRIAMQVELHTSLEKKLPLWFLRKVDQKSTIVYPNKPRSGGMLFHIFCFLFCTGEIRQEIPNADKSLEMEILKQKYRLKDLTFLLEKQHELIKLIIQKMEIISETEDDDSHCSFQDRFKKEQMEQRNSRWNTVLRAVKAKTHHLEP
Assay type: cell-based
Description: Measurement of TRPA1 Antagonist Activity
Human TRPA1 Expression Plasmid
As cDNA encoding human TRPA1 (GenBank accession No. […]), a commercially available product was purchased (manufactured by Kazusa DNA Research Institute, clone No.: pFN21AB7348, item No.: FHC07217). Using this as a template, full-length human TRPA1 gene was amplified using the primer sequences shown below, by reaction using DNA polymerase (manufactured by Stratagene, trade name: PfuUltra High-Fidelity DNA Polymerase).
A recognition site (underlined) of restriction enzyme HindIII was added to the 5′ side, and XbaI site (underlined) was added to the 3′ side, and GTT of the template sequence was changed to termination codon TAG (bold). The obtained double stranded DNA was enzyme-digested with HindIII and XbaI, and introduced into a multicloning site of expression plasmid pcDNA3.1/zeo(+) (manufactured by Invitrogen) to give a human TRPA1 expression plasmid.
Human embryonic kidney-derived 293T cells were cultured in Dulbecco's Modified Eagle Medium containing 10% fetal bovine serum, 10 unit penicillin, and 10 μg streptomycin, plated on a petri dish having a diameter of 10 cm at 3×10^6 cells, and cultured for 24 hr. A medium containing a reduced amount of serum (manufactured by Invitrogen, trade name: OPTI-MEM, 600 μL), a gene insertion reagent (manufactured by Mirus Bio, trade name: Mirus TransIT-293, 18 μL), and human TRPA1 expression plasmid (6 μg) were mixed, the total amount of the mixture was added to the cells on the petri dish to allow for gene transfer. The cells were recovered about 8 hr later, plated on a poly-D-lysine coated 384 well black/clear bottom plate at 7,500-12,000 cells/well, and cultured overnight.
Measurement of Intracellular Calcium Increase
The 384 well plate was recovered, and the medium was removed. A calcium-bonded fluorescent indicator (manufactured by Molecular Device, trade name: Calcium4 Assay Kit, 40 μL) dissolved in assay buffer (1×HBSS, 20 mM HEPES, pH 7.2) was added, and the cells were stained in a 37° C. incubator for 1 hr. The cells were taken out at room temperature and left standing for 15 min or more. A test substance (10 μL) was added by a 384 well type dispenser, and the mixture was incubated at room temperature for 10 min. Then, allylisothiocyanate (12.5 μL) at a final concentration of 20 μM was added by a fluorescence imaging plate reader (manufactured by Molecular Device, FLIPR), and changes in the relative fluorescence intensity were measured for 5 min.
Test Substance Preparation
The test substance was dissolved in dimethyl sulfoxide and serially diluted with an assay buffer containing 0.1% bovine serum albumin (1×HBSS, 20 mM HEPES, pH 7.2) to a 5-fold concentration of the evaluation concentration. Allylisothiocyanate, which is a known TRPA1 activator, was dissolved in dimethyl sulfoxide to 100 mM, and further diluted 5-fold (100 μM) of the final concentration, like the test substance.
Calculation of Antagonist Activity
Under the test substance-free conditions, the maximum variation range of the fluorescence intensity before and after allylisothiocyanate stimulation was defined to be 100% activity rate, and the variation range before and after buffer stimulation was defined as 0% activity rate. The activity rate on addition of the test substance was determined, and the numerical value obtained by subtracting the activity rate from 100 was defined to be an inhibitory rate. 1050, which is the concentration of the test substance necessary for reaching the 50% inhibitory rate, was calculated from the sigmoid approximate curve by a spreadsheet software Excel-Fit.
With `O=C(NCc1ccc(Oc2ccccc2)cc1)[C@@H]1CCCN1S(=O)(=O)c1ccc(Cl)s1` [Example 1, (2S)-1-(5-chlorothiophene-2-sulfonyl)-N-[(4-phenoxyphenyl)methyl]pyrrolidine-2-carboxamide] the IC50 was 220 nM. `O=C(NCc1ccc(Oc2ccc(C(F)(F)F)cc2)cc1)[C@@H]1CCCN1S(=O)(=O)c1ccc(Cl)s1` [Example 2] gave an IC50 of 210 nM. In the case of `O=C(NCc1ccc(Oc2ccc(OC(F)(F)F)cc2)cc1)[C@@H]1CCCN1S(=O)(=O)c1ccc(Cl)s1` [Example 3], the IC50 is reported as 88 nM. Compound `O=C(NCc1ccc(Oc2ccc(Cl)cc2)cc1)[C@@H]1CCCN1S(=O)(=O)c1ccc(Cl)s1` [Example 4, (2S)-N-{[4-(4-chlorophenoxy)phenyl]methyl}-1-(5-chlorothiophene-2-sulfonyl)pyrrolidine-2-carboxamide] has an IC50 of 100 nM. `O=C(NCc1ccc(Oc2ccc(F)cc2)cc1)[C@@H]1CCCN1S(=O)(=O)c1ccc(Cl)s1` [Example 5, (2S)-1-(5-chlorothiophene-2-sulfonyl)-N-{[4-(4-fluorophenoxy)phenyl]methyl)pyrrolidine-2-carboxamide] showed an IC50 of 130 nM. Work on `O=C(NCc1ccc(Oc2cccc(C(F)(F)F)c2)cc1)[C@@H]1CCCN1S(=O)(=O)c1ccc(Cl)s1` [Example 6, (2S)-1-(5-chlorothiophene-2-sulfonyl)-N-({4-[3-(trifluoromethyl)phenoxy]phenyl}methyl)pyrrolidine-2-carboxamide] yielded an IC50 of 100 nM. `O=C(NCc1ccc(Oc2cccc(OC(F)(F)F)c2)cc1)[C@@H]1CCCN1S(=O)(=O)c1ccc(Cl)s1` [Example 7, (2S)-1-(5-chlorothiophene-2-sulfonyl)-N-({4-[3-(trifluoromethoxy)phenoxy]phenyl}methyl)pyrrolidine-2-carboxamide] was tested, and the IC50 was 81 nM. `O=C(NCc1ccc(Oc2cccc(Cl)c2)cc1)[C@@H]1CCCN1S(=O)(=O)c1ccc(Cl)s1` [Example 8, (2S)-N-{[4-(3-chlorophenoxy)phenyl]methyl}-1-(5-chlorothiophene-2-sulfonyl)pyrrolidine-2-carboxamide] gave an IC50 of 100 nM. `O=C(NCc1ccc(Oc2cccc(F)c2)cc1)[C@@H]1CCCN1S(=O)(=O)c1ccc(Cl)s1` [Example 9, (2S)-1-(5-chlorothiophene-2-sulfonyl)-N-{[4-(3-fluoro-phenoxy)phenyl]methyl}pyrrolidine-2-carboxamide] gave an IC50 of 170 nM. In the case of `O=C(NCc1ccc(Oc2ccccc2C(F)(F)F)cc1)[C@@H]1CCCN1S(=O)(=O)c1ccc(Cl)s1` [Example 10, (2S)-1-(5-chlorothiophene-2-sulfonyl)-N-({4-[2-(trifluoro-methyl)phenoxy]phenyl}methyl)pyrrolidine-2-carboxamide], the IC50 is reported as 450 nM. `O=C(NCc1ccc(Oc2ccc(F)c(Cl)c2)cc1)[C@@H]1CCCN1S(=O)(=O)c1ccc(Cl)s1` [Example 11, (2S)-N-{[4-(3-chloro-4-fluoro-phenoxy)phenyl]methyl}-1-(5-chlorothiophene-2-sulfonyl)pyrrolidine-2-carboxamide] showed an IC50 of 200 nM. In the case of `O=C(NCc1ccc(Oc2ccnc(C(F)(F)F)c2)cc1)[C@@H]1CCCN1S(=O)(=O)c1ccc(Cl)s1` [Example 12, (2S)-1-(5-chlorothiophene-2-sulfonyl)-N-((4-{[2-(trifluoro-methyl)-4-pyridyl]oxy}phenyl)methyl)pyrrolidine-2-carboxamide], the IC50 is reported as 87 nM. In the case of `O=C(NCc1ccc(Oc2ccnc(Cl)c2)cc1)[C@@H]1CCCN1S(=O)(=O)c1ccc(Cl)s1` [Example 13, (2S)-N-({4-[(2-chloro-4-pyridyl)oxy]phenyl}methyl)-1-(5-chlorothiophene-2-sulfonyl)pyrrolidine-2-carboxamide], the IC50 is reported as 180 nM. `O=C(NCc1cccc(Oc2ccccc2)c1)[C@@H]1CCCN1S(=O)(=O)c1ccc(Cl)s1` [Example 14, (2S)-1-(5-chlorothiophene-2-sulfonyl)-N-[(3-phenoxyphenyl)methyl]pyrrolidine-2-carboxamide] showed an IC50 of 240 nM. `O=C(NCc1cccc(Oc2ccc(C(F)(F)F)cc2)c1)[C@@H]1CCCN1S(=O)(=O)c1ccc(Cl)s1` [Example 15, (2S)-1-(5-chlorothiophene-2-sulfonyl)-N-({3-[4-(trifluoro-methyl)phenoxy]phenyl}methyl)pyrrolidine-2-carboxamide] showed an IC50 of 15 nM. In the case of `O=C(NCc1cccc(Oc2ccc(OC(F)(F)F)cc2)c1)[C@@H]1CCCN1S(=O)(=O)c1ccc(Cl)s1` [Example 16, (2S)-1-(5-chlorothiophene-2-sulfonyl)-N-({3-[4-(trifluoro-methoxy)phenoxy]phenyl}methyl)pyrrolidine-2-carboxamide], the IC50 is reported as 100 nM. Compound `O=C(NCc1cccc(Oc2ccc(Cl)cc2)c1)[C@@H]1CCCN1S(=O)(=O)c1ccc(Cl)s1` [Example 17, (2S)-N-{[3-(4-chlorophenoxy)phenyl]methyl}-1-(5-chlorothiophene-2-sulfonyl)pyrrolidine-2-carboxamide] has an IC50 of 120 nM. `O=C(NCc1cccc(Oc2ccc(F)cc2)c1)[C@@H]1CCCN1S(=O)(=O)c1ccc(Cl)s1` [Example 18, (2S)-1-(5-chlorothiophene-2-sulfonyl)-N-{[3-(4-fluoro-phenoxy)phenyl]methyl}pyrrolidine-2-carboxamide] was tested, and the IC50 was 130 nM. `O=C(NCc1cccc(Oc2cccc(C(F)(F)F)c2)c1)[C@@H]1CCCN1S(=O)(=O)c1ccc(Cl)s1` [Example 19, (2S)-1-(5-chlorothiophine-2-sulfonyl)-N-({3-[3-(trifluoro-methyl)phenoxy]phenyl}methyl)pyrrolidine-2-carboxamide] showed an IC50 of 80 nM. `O=C(NCc1cccc(Oc2cccc(OC(F)(F)F)c2)c1)[C@@H]1CCCN1S(=O)(=O)c1ccc(Cl)s1` [Example 20, (2S)-1-(5-chlorothiophene-2-sulfonyl)-N-({3-[3-(trifluoro-methoxy)phenoxy]phenyl}methyl)pyrrolidine-2-carboxamide] gave an IC50 of 71 nM. In the case of `O=C(NCc1cccc(Oc2cccc(Cl)c2)c1)[C@@H]1CCCN1S(=O)(=O)c1ccc(Cl)s1` [Example 21, (2S)-N-{[3-(3-chlorophenoxy)phenyl]methyl}-1-(5-chloro-thiophene-2-sulfonyl)pyrrolidine-2-carboxamide], the IC50 is reported as 45 nM. `O=C(NCc1cccc(Oc2cccc(F)c2)c1)[C@@H]1CCCN1S(=O)(=O)c1ccc(Cl)s1` [Example 22, (2S)-1-(5-chlorothiophene-2-sulfonyl)-N-{[3-(3-fluoro-phenoxy)phenyl]methyl}pyrrolidine-2-carboxamide] was tested, and the IC50 was 56 nM. Work on `O=C(NCc1cccc(Oc2ccccc2C(F)(F)F)c1)[C@@H]1CCCN1S(=O)(=O)c1ccc(Cl)s1` [Example 23, (2S)-1-(5-chlorothiophene-2-sulfonyl)-N-({3-[2-(trifluoro-methyl)phenoxy]phenyl}methyl)pyrrolidine-2-carboxamide] yielded an IC50 of 380 nM.

Same assay, conditions: allylisothiocyanate 20 μM stimulation, FLIPR calcium assay; read-out: antagonism hTRPA1
For `CC(Oc1cccc(CNC(=O)[C@@H]2CCCN2S(=O)(=O)c2ccc(F)cc2)c1)c1ccccc1` (stereo in doubt) [Example 143, (2S)-1-(4-fluorophenyl)sulfonyl-N-[[3-[(1R)-1-phenylethoxy]phenyl]methyl]pyrrolidine-2-carboxamide], the IC50 was 190 nM. For `CC(Oc1cccc(CNC(=O)[C@@H]2CCCN2S(=O)(=O)c2ccc(F)cc2)c1)c1ccc(Cl)cc1` (stereo in doubt) [Example 145, (2S)-N-[[3-[(1R)-1-(4-chlorophenyl)ethoxy]phenyl]methyl]-1-(4-fluorophenyl)sulfonyl-pyrrolidine-2-carboxamide], the IC50 was 65 nM. For `O=C(NCc1cccc(Oc2ccc(C(F)(F)F)cc2)c1)[C@@H]1CC(F)CN1S(=O)(=O)c1ccc(F)cc1` (stereo in doubt) [Example 158, (2S,4R)-4-fluoro-1-(4-fluorophenyl)sulfonyl-N-[[3-[4-(trifluoromethyl)phenoxy]phenyl]methyl]pyrrolidine-2-carboxamide], the IC50 was 280 nM.
